The test system of one series is HBV. As to the kind of experiment: Determination of HBV DNA from the supernatants of HepAD38 cells (anti-HBV activity). To be noted: Hepatitis B virus, 144 h; HBV DNA in HepAD38 supernatant, day 6, qPCR; read-out: Cell Activity (EC50). In kind it is cell-based, hepatitis B virus. Put shortly:
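Supernatant viral DNA was measured by LightCycler qPCR, calibrated with pCH-9/3091 plasmid, 6 days after tetracycline-free HepAD38 cultures received half-log serial compound dilutions; untreated and tetracycline-treated cells served as controls; EC50 was fitted by non-linear regression.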
In general terms: Quantitative PCR measures a nucleic acid by following its amplification.

The next series addresses T1, HBV core protein (UniProt P03146).
T1 construct: fused on or other part: BODIPY-FL maleimide label on the C-terminal Cys150
Nature of the series: Biochemical capsid assembly assay (fluorescence quenching). Also noted: species or system hepatitis B virus. Conditions: read-out: Assembly Activity (IC50); BODIPY-FL labelled core protein, 300 μM NaCl, read 6 min after start. On the procedure: Biochemical Capsid Assembly Assay
The screening for assembly effector activity was done based on a fluorescence quenching assay published by Zlotnick et al. (2007). The C-terminal truncated core protein containing 149 amino acids of the N-terminal assembly domain fused to a unique cysteine residue at position 150 and was expressed in E. coli using the pET expression system (Merck Chemicals, Darmstadt). Purification of core dimer protein was performed using a sequence of size exclusion chromatography steps. In brief, the cell pellet from 1 L BL21 (DE3) Rosetta2 culture expressing the coding sequence of core protein cloned NdeI/XhoI into expression plasmid pET21b was treated for 1 h on ice with a native lysis buffer (Qproteome Bacterial Protein Prep Kit; Qiagen, Hilden). After a centrifugation step the supernatant was precipitated during 2 h stirring on ice with 0.23 g/ml of solid ammonium sulfate. Following further centrifugation the resulting pellet was resolved in buffer A (100 mM Tris, pH 7.5; 100 mM NaCl; 2 mM DTT) and was subsequently loaded onto a buffer A equilibrated CaptoCore 700 column (GE HealthCare, Frankfurt). The column flow through containing the assembled HBV capsid was dialyzed against buffer N (50 mM NaHCO3 pH 9.6; 5 mM DTT) before urea was added to a final concentration of 3M to dissociate the capsid into core dimers for 1.5 h on ice. The protein solution was then loaded onto a 1 L Sephacryl S300 column. After elution with buffer N core dimer containing fractions were identified by SDS-PAGE and subsequently pooled and dialyzed against 50 mM HEPES pH 7.5; […]. To improve the assembly capacity of the purified core dimers a second round of assembly and disassembly starting with the addition of 5 M NaCl and including the size exclusion chromatography steps described above was performed. From the last chromatography step core dimer containing fractions were pooled and stored in aliquots at concentrations between 1.5 to 2.0 mg/ml at −80° C.
Immediately before labelling the core protein was reduced by adding freshly prepared DTT in a final concentration of 20 mM. After 40 min incubation on ice storage buffer and DTT was removed using a Sephadex G-25 column (GE HealthCare, Frankfurt) and 50 mM HEPES, pH 7.5. For labelling 1.6 mg/ml core protein was incubated at 4° C. and darkness overnight with BODIPY-FL maleimide (Invitrogen, Karlsruhe) in a final concentration of 1 mM. After labelling the free dye was removed by an additional desalting step using a Sephadex G-25 column. Labelled core dimers were stored in aliquots at 4° C. In the dimeric state the fluorescence signal of the labelled core protein is high and is quenched during the assembly of the core dimers to high molecular capsid structures. The screening assay was performed in black 384 well microtiter plates in a total assay volume of 10 μl using 50 mM HEPES pH 7.5 and 1.0 to 2.0 μM labelled core protein. Each screening compound was added in 8 different concentrations using a 0.5 log-unit serial dilution starting at a final concentration of 100 μM, 31.6 μM or 10 μM, In any case the DMSO concentration over the entire microtiter plate was 0.5%. The assembly reaction was started by the injection of NaCl to a final concentration of […] which induces the assembly process to approximately 25% of the maximal quenched signal. 6 min after starting the reaction the fluorescence signal was measured using a Clariostar plate reader (BMG Labtech, Ortenberg) with an excitation of 477 nm and an emission of 525 nm. As 100% and 0% assembly control HEPES buffer containing 2.5 M and 0 M NaCl was used. Experiments were performed thrice in triplicates. EC50 values were calculated by non-linear regression analysis using the Graph Pad Prism 6 software (GraphPad Software, La Jolla, USA).

A short description of series [1]: Cell viability assay (AlamarBlue) in HepAD38 cells. To be noted: human. (Alamar Blue is a resazurin reagent that responds to reducing activity.)

Among the data in patent publication US11236087B2, “Highly active pyrazolo-piperidine substituted indole-2-carboxamides active against the hepatitis B virus (HBV)” (AiCuris GmbH & Co. KG, priority 2017, dated 2022) are EC50, IC50 and CC50 values, retold here.

T1 sequence (P03146 whole entry, looked up, the tested form may be a part): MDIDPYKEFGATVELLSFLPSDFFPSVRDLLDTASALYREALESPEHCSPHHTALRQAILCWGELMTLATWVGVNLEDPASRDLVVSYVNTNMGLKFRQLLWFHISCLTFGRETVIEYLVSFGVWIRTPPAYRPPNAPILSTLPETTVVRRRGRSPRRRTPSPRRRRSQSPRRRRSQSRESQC

The term EC50 denotes the concentration at which the effect is half-maximal. The IC50 is the midpoint of a concentration-inhibition curve. Broadly, the CC50 is the concentration at which the toxic effect on the cells reaches its halfway point. Lower therefore signals greater toxicity to the cells. As for `CN(C(=O)c1n[nH]c2c1CN(C(=O)c1cc3ccccc3[nH]1)CC2)[C@@H]1CCCC[C@H]1O` (racemic) [Example 192, N-[(±)-2-hydroxycyclohexyl]-5-(1H-indole-2-carbonyl)-N-methyl-1H,4H,5H,6H,7H-pyrazolo[4,3-c]pyridine-3-carboxamide], the EC50 in the series on HBV was less than 1 µM. The IC50 on HBV core protein is 5 to 10 µM. The CC50 at 6 days in series [1] is more than 10 µM.

In the case of `CN(CCO)C(=O)c1n[nH]c2c1CN(C(=O)c1cc3c(C(F)F)cc(F)cc3[nH]1)CC2` [Example 3, 5-[4-(difluoromethyl)-6-fluoro-1H-indole-2-carbonyl]-N-(2-hydroxyethyl)-N-methyl-1H,4H,5H,6H,7H-pyrazolo[4,3-c]pyridine-3-carboxamide], in the series on HBV, the EC50 is less than 1 µM. Also, the IC50 on HBV core protein is less than 5 µM. In series [1], this compound registered a CC50 at 6 days of more than 10 µM.

Take `CN(CCO)C(=O)c1n[nH]c2c1CN(C(=O)c1cc3c(C(F)F)cccc3[nH]1)CC2` [Example 4, 5-[4-(difluoromethyl)-1H-indole-2-carbonyl]-N-(2-hydroxyethyl)-N-methyl-1H,4H,5H,6H,7H-pyrazolo[4,3-c]pyridine-3-carboxamide]: in the series on HBV, the EC50 is less than 1 µM. For the same compound, the half-inhibitory concentration (IC50) at HBV core protein is less than 5 µM. In series [1], this compound registered a 50% cytotoxic concentration (CC50) at 6 days of more than 10 µM.

For `CN(CCO)C(=O)c1n[nH]c2c1CN(C(=O)c1cc3c(C(C)(F)F)cccc3[nH]1)CC2` [Example 5, 5-[4-(1,1-difluoroethyl)-1H-indole-2-carbonyl]-N-(2-hydroxyethyl)-N-methyl-1H,4H,5H,6H,7H-pyrazolo[4,3-c]pyridine-3-carboxamide], the concentration for a half-maximal effect (EC50) in the series on HBV was less than 100 µM. On HBV core protein, the half-maximal inhibitory concentration (IC50) is less than 5 µM. This compound also returned a cytotoxic concentration (CC50) at 6 days in series [1] of more than 32 µM.

Take `CN(CCO)C(=O)c1n[nH]c2c1CN(C(=O)c1cc3cc(F)c(Cl)cc3[nH]1)CC2` [Example 6, 5-(6-chloro-5-fluoro-1H-indole-2-carbonyl)-N-(2-hydroxyethyl)-N-methyl-1H,4H,5H,6H,7H-pyrazolo[4,3-c]pyridine-3-carboxamide]: the EC50 in the series on HBV is less than 1 µM. Also, the IC50 on HBV core protein is less than 5 µM. Also, the CC50 at 6 days in series [1] is more than 10 µM.

Take `CN(CCO)C(=O)c1n[nH]c2c1CN(C(=O)c1cc3cc(F)c(F)cc3[nH]1)CC2` [Example 7, 5-(5,6-difluoro-1H-indole-2-carbonyl)-N-(2-hydroxyethyl)-N-methyl-1H,4H,5H,6H,7H-pyrazolo[4,3-c]pyridine-3-carboxamide]: the EC50 in the series on HBV is less than 1 µM. In addition, the IC50 on HBV core protein is less than 5 µM. This compound yielded a CC50 at 6 days in series [1] of more than 10 µM.

On to `CN(CCO)C(=O)c1n[nH]c2c1CN(C(=O)c1cc3c(F)c(F)c(F)cc3[nH]1)CC2` [Example 8, N-(2-hydroxyethyl)-N-methyl-5-(4,5,6-trifluoro-1H-indole-2-carbonyl)-1H,4H,5H,6H,7H-pyrazolo[4,3-c]pyridine-3-carboxamide], for which the 50% effective concentration (EC50) in the series with HBV was less than 1 µM. Moreover, at HBV core protein, the IC50 was less than 5 µM. In series [1], this compound had a CC50 at 6 days of more than 10 µM.

On to `CCc1ccc(F)c2[nH]c(C(=O)N3CCc4[nH]nc(C(=O)N(C)CCO)c4C3)cc12` [Example 9, 5-(4-ethyl-7-fluoro-1H-indole-2-carbonyl)-N-(2-hydroxyethyl)-N-methyl-1H,4H,5H,6H,7H-pyrazolo[4,3-c]pyridine-3-carboxamide], for which the EC50 in the series with HBV was less than 1 µM. On HBV core protein, the IC50 is less than 5 µM. Moreover, the CC50 at 6 days in series [1] was more than 10 µM.

Turning to `CCc1cc(F)cc2[nH]c(C(=O)N3CCc4[nH]nc(C(=O)N(C)CCO)c4C3)cc12` [Example 10, 5-(4-ethyl-6-fluoro-1H-indole-2-carbonyl)-N-(2-hydroxyethyl)-N-methyl-1H,4H,5H,6H,7H-pyrazolo[4,3-c]pyridine-3-carboxamide], the half-maximal effective concentration (EC50) in the series on HBV was less than 1 µM. In addition, the IC50 on HBV core protein is less than 5 µM. In series [1], this compound had a CC50 at 6 days of more than 10 µM.

On to `CCc1cc(F)cc2[nH]c(C(=O)N3CCc4n[nH]c(-c5cscn5)c4C3)cc12` [Example 12, 4-ethyl-6-fluoro-2-[3-(1,3-thiazol-4-yl)-2H,4H,5H,6H,7H-pyrazolo[4,3-c]pyridine-5-carbonyl]-1H-indole], for which, in the series with HBV, the EC50 was less than 1 µM. For the same compound, the IC50 at HBV core protein is less than 5 µM. Moreover, in series [1], the CC50 at 6 days was more than 10 µM.

Regarding `O=C(c1cc2ccc(Br)cc2[nH]1)N1CCc2n[nH]c(-c3cscn3)c2C1` [Example 15, 6-bromo-2-[3-(1,3-thiazol-4-yl)-2H,4H,5H,6H,7H-pyrazolo[4,3-c]pyridine-5-carbonyl]-1H-indole], in the series with HBV, the EC50 is less than 1 µM. Moreover, the IC50 at HBV core protein was 5 to 10 µM. This compound also returned a CC50 at 6 days in series [1] of more than 10 µM.

For `O=C(c1cc2ccc(Cl)cc2[nH]1)N1CCc2n[nH]c(-c3cscn3)c2C1` [Example 16, 6-chloro-2-[3-(1,3-thiazol-4-yl)-2H,4H,5H,6H,7H-pyrazolo[4,3-c]pyridine-5-carbonyl]-1H-indole], the EC50 with HBV was less than 1 µM. In addition, the IC50 on HBV core protein is less than 5 µM. The same compound displayed a CC50 at 6 days in series [1] of more than 10 µM.

As to `O=C(c1cc2c(F)ccc(F)c2[nH]1)N1CCc2n[nH]c(-c3cscn3)c2C1` [Example 17, 4,7-difluoro-2-[3-(1,3-thiazol-4-yl)-2H,4H,5H,6H,7H-pyrazolo[4,3-c]pyridine-5-carbonyl]-1H-indole], the EC50 in the series on HBV is less than 1 µM. Further, the IC50 on HBV core protein was less than 5 µM. Moreover, in series [1], the CC50 at 6 days is more than 10 µM.

On to `CCc1cccc2[nH]c(C(=O)N3CCc4n[nH]c(-c5cscn5)c4C3)cc12` [Example 18, 4-ethyl-2-[3-(1,3-thiazol-4-yl)-2H,4H,5H,6H,7H-pyrazolo[4,3-c]pyridine-5-carbonyl]-1H-indole], for which the EC50 in the series on HBV is less than 1 µM. Besides, the half-inhibitory concentration (IC50) at HBV core protein was less than 5 µM. Moreover, in series [1], the CC50 at 6 days turned out to be 7.3 µM.

With `O=C(c1cc2c(Cl)cccc2[nH]1)N1CCc2n[nH]c(-c3cscn3)c2C1` [Example 19, 4-chloro-2-[3-(1,3-thiazol-4-yl)-2H,4H,5H,6H,7H-pyrazolo[4,3-c]pyridine-5-carbonyl]-1H-indole], the EC50 in the series with HBV was less than 1 µM. Moreover, the IC50 at HBV core protein was less than 5 µM. In series [1], this compound displayed a CC50 at 6 days of more than 10 µM.

As for `COC(=O)C1CCN(C(=O)c2n[nH]c3c2CN(C(=O)c2cc4ccccc4[nH]2)CC3)CC1` [Example 132, methyl 1-[5-(1H-indole-2-carbonyl)-1H,4H,5H,6H,7H-pyrazolo[4,3-c]pyridine-3-carbonyl]piperidine-4-carboxylate], the half-maximal inhibitory concentration (IC50) on HBV core protein was less than 5 µM. Besides, the CC50 at 6 days in series [1] was more than 10 µM.

On to `CN(C(=O)c1n[nH]c2c1CN(C(=O)c1cc3ccccc3[nH]1)CC2)C(C)(C)CO` [Example 143, N-(1-hydroxy-2-methylpropan-2-yl)-5-(1H-indole-2-carbonyl)-N-methyl-1H,4H,5H,6H,7H-pyrazolo[4,3-c]pyridine-3-carboxamide], for which the EC50 with HBV fell in the range of 1 to 25 µM. At HBV core protein, the IC50 was in the range of 5 to 10 µM.

On to `CN(C(=O)c1[nH]nc2c1CN(C(=O)c1cc3ccccc3[nH]1)CC2)C1(c2ccno2)CC1` [Example 402, 5-(1H-indole-2-carbonyl)-N-methyl-N-[1-(1,2-oxazol-5-yl)cyclopropyl]-2H,4H,5H,6H,7H-pyrazolo[4,3-c]pyridine-3-carboxamide], for which the EC50 with HBV was less than 1 µM. The CC50 at 6 days in series [1] is more than 10 µM.
